Here are results for 1 compound from US20200087340A1, “LIF/LIFR ANTAGONIST IN ONCOLOGY AND NONMALIGNANT DISEASES” (Evestra, Inc., priority 2018, published 2020).

Each structure is given as a SMILES string.

One series concerns BT-549. The series is described as follows: NCI-60 screening, Breast Cancer. It is filed as cell-based, human.
The test system of another series is EKVX. Put plainly: NCI-60 screening, Non-Small Cell Lung Cancer. It is filed as cell-based, human.
The test system of another series is A549/ATCC. The series is described as follows: NCI-60 screening, Non-Small Cell Lung Cancer. The class given is cell-based, human.
In the next series the test system is OVCAR-3. Put plainly: NCI-60 screening, Ovarian Cancer. The class given is cell-based, human. The protocol:
EC 330 was also tested using the NCI-60 Screening Methodology. The human tumor cell lines of the cancer screening panel are grown in RPMI 1640 medium containing 5% fetal bovine serum and 2 mM L-glutamine. For a typical screening experiment, cells are inoculated into 96 well microtiter plates in 100 μL at plating densities ranging from 5,000 to 40,000 cells/well depending on the doubling time of individual cell lines. After cell inoculation, the microtiter plates are incubated at 37° C., 5% CO2, 95% air and 100% relative humidity for 24 h prior to addition of experimental drugs. […]
Following drug addition, the plates are incubated for an additional 48 h at 37° C., 5% CO2, 95% air, and 100% relative humidity. […] Bound stain is subsequently solubilized with 10 mM trizma base, and the absorbance is read on an automated plate reader at a wavelength of 515 nm. […] Using the seven absorbance measurements [time zero, (Tz), control growth, (C), and test growth in the presence of drug at the five concentration levels (Ti)], the percentage growth is calculated at each of the drug concentrations levels. Percentage growth inhibition is calculated as: […]
Three dose response parameters are calculated for each experimental agent. […] The drug concentration resulting in total growth inhibition (TGI) is calculated from Ti=Tz. […]

Series [1] relates to various cancer cells lines. Put plainly: Cytotoxicity assays in various cancer cell lines. The class given is cell-based.
The test system of another series is HCT-15. Put plainly: NCI-60 screening, Colon Cancer. It is filed as cell-based, human.

As for `C#CC(F)(F)[C@]1(O)CCC2C3CCC4=CC(=O)CCC4=C3C(c3ccc(C4CC4)cc3)C[C@@]21C` (stereo partly drawn) [EC330, 17α-(1,1-difluoro-2-propyn-1-yl)-17β-hydroxy-11β-[4-p-(cyclopropyl)phenyl]estra-4,9-dien-3-one], the “TGI (log10TGI)” value is listed as −5.30 in the series with BT-549; below −8.00 with EKVX; −4.61 in the series with A549/ATCC; −6.85 with OVCAR-3; above −4.00 with HCT-15. In addition, the “cytotoxicity (IC50's) in cytotoxicity assays” value in series [1] was “low nanomolar”.
